Results from patent US10023592B2, “Bromodomain inhibitors” (Celgene Quanticel Research, Inc., priority 2013, dated 2018).

Key:
[1] = system: Raji, human Burkitts lymphoma cells; assay: Cell-MTS proliferation assay, Raji; format: cell-based; conditions: 168 hr
Description: (§1) The Cell-MTS assay is a 7-day plate-based colorimetric assay which quantifies the amount of newly generated NADH in the presence or absence of test compound. The NADH level is used for the quantification of cancer cell proliferation.
(§2) Established cancer cell lines with a variety of driving mutations were obtained from American Type Culture Collection (ATCC) and routinely passaged according to ATCC protocols. For routine assay, these cells were seeded at densities which enabled ˜90% confluence after 7 days of culture. Raji, human Burkitts lymphoma cells, (cMYC) were seeded at 15,000 cells per 96-well. HL-60, human proleukemia cells, (NRAS, p16, p53, c-Myc amplified) were seeded at 5,000 cells per 96-well. NCI-H460, human non-small cell lung cancer cells, (KRAS, PIK3CA, STLK11, p16) were seeded at 3,000 cells per 96-well. 24 hr after plating, cells received an 11-point dilution of test compound with final concentration ranges from 100 μM to 2.0 nM. […] At the end of this incubation period, 80 μL of media is removed and 20 μL of CellTiter 96® AQueous Non-Radioactive Cell Proliferation Assay soln (Promega) was added. The cells were incubated until the OD490 was >0.6. IC50 values were calculated using the IDBS XLfit software package and include background subtracted OD490 values and normalization to DMSO controls. Cellular proliferation IC50 values were uploaded and archived using the Chem Biography Platform.

[2] = target: BRD4(BD1) (Homo sapiens (Human), UniProt O60885); assay: In vitro enzyme inhibition assay (BRD4 AlphaScreen); format: binding
Method in brief: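 His-tagged BRD4 tested by AlphaScreen for binding of biotinylated H4K5/8/12/16-tetraacetyl peptide. After 20 min at room temperature, streptavidin donor and nickel chelate acceptor beads added (5 μg/mL final each). IC50 determined.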

[3] = system: HL-60, human proleukemia cells; assay: Cell-MTS proliferation assay, HL-60; format: cell-based; conditions: Cell-MTS, 168 hr, class symbols A/B/C
Description: as §1, §2

[4] = Homo sapiens, Cell-MTS proliferation, Raji cells
[5] = in vitro enzyme inhibition assay
[6] = Homo sapiens, Raji, Cell-MTS, class symbols A/B/C
[7] = Homo sapiens, Raji, Cell-MTS proliferation

| IC50 [2, 5] [nM] | IC50 [1, 6] [nM] | IC50 ([2]; class symbols A/B/C) [nM] | IC50 ([3]; Homo sapiens, HL-60) [nM] | Structure (SMILES) | further results |
| --- | --- | --- | --- | --- | --- |
| – | 500 to 5000 | 500 to 5000 | 500 to 5000 | Cn1cc(-c2cccc(S(=O)(=O)NCCO)c2)c2ccccc2c1=O [Example 22, N-(2-hydroxyethyl)-3-(2-methyl-1-oxoisoquinolin-4-yl)benzenesulfonamide] | – |
| – | 500 to 5000 | – | 500 to 5000 | Cn1cc(-c2cccc(S(N)(=O)=O)c2)c2ccc(F)cc2c1=O [Example 61, 3-(7-fluoro-2-methhyl-1-oxoisoquinolin-4-yl) benzenesulfonamide] | – |
| – | 500 to 5000 | < 500 | < 500 | COc1ccc(-c2cn(C)c(=O)c3ccccc23)cc1NS(C)(=O)=O [Example 30, N-[2-methoxy-5-(2-methyl-1-oxoisoquinolin-4-yl)phenyl]methanesulfonamide] | – |
| – | 500 to 5000 | 500 to 5000 | 500 to 5000 | COc1ccc(-c2cn(C)c(=O)c3ccccc23)cc1C(=O)NCc1ccccc1 [Example 18, N-benzyl-2-methoxy-5-(2-methyl-1-oxoisoquinolin-4-yl)benzamide] | – |
| – | 500 to 5000 | < 500 | < 500 | Cc1ccc(NS(C)(=O)=O)cc1-c1cn(C)c(=O)c2ccccc12 [Example 39, N-[4-methyl-3-(2-methyl-1-oxoisoquinolin-4-yl)phenyl]methanesulfonamide] | – |
| – | < 500 | < 500 | < 500 | Cn1cc(-c2ccc3c(=O)n(C)cc(-c4cc(NS(C)(=O)=O)ccc4F)c3c2)cn1 [Example 41, N-[4-fluoro-3-[2-methyl-6-(1-methylpyrazol-4-yl)-1-oxoisoquinolin-4-yl]phenyl]methanesulfonamide] | – |
| – | 500 to 5000 | 500 to 5000 | 500 to 5000 | CCS(=O)(=O)Nc1cccc(-c2cn(C)c(=O)c3cnccc23)c1 [Example 52, N-[3-(2-methyl-1-oxo-2,7-naphthyridin-4-yl)phenyl] ethanesulfonamide] | – |
| – | < 500 | < 500 | < 500 | Cn1cc(-c2cccc(NS(C)(=O)=O)c2)c2cc(F)ccc2c1=O [Example 47, N-[3-(6-fluoro-2-methyl-1-oxoisoquinolin-4-yl)phenyl]methanesulfonamide] | – |
| – | < 500 | > 5000 | < 500 | Cn1cc(-c2ccc3c(c2)NC(=O)C3)c2ccccc2c1=O [Example 20, 2-methyl-4-(2-oxo-1,3-dihydroindol-6-yl) isoquinolin-1-one] | – |
| – | < 500 | < 500 | < 500 | Cn1cc(-c2cc(S(C)(=O)=O)ccc2OCC2CC2)c2cc(F)ccc2c1=O [Example 90, 4-[2-(cyclopropylmethoxy)-5-methylsulfonylphenyl]-6-fluoro-2-methylisoquinolin-1-one] | – |
| < 500 | – | – | – | CCCCc1cnc(NS(=O)(=O)CC)nc1-c1cc(C(C)C)c(=O)n(C)c1 [Example 512, N-[5-butyl-4-(1-methyl-6-oxo-5-propan-2-ylpyridin-3-yl)pyrimidin-2-yl] ethanesulfonamide] | IC50 [1, 4]: < 500 nM |
| – | < 500 | < 500 | < 500 | Cn1cc(-c2cc(NS(C)(=O)=O)ccc2F)c2ccccc2c1=O [Example 34, N-[4-fluoro-3-(2-methyl-1-oxoisoquinolin-4-yl)phenyl] methanesulfonamide] | – |
| < 500 | – | – | – | CCS(=O)(=O)c1ccc(OCC2CC2)c(-c2cc(OCC(F)(F)F)c(=O)n(C)c2)c1 [Example 288, 5-[2-(cyclopropylmethoxy)-5-ethylsulfonylphenyl]-1-methyl-3-(2,2,2-trifluoroethoxy)pyridin-2-one] | IC50 [1, 7]: 500 to 5000 nM |
| – | 500 to 5000 | < 500 | < 500 | CCS(=O)(=O)Nc1cccc(-c2cn(C)c(=O)c3cc(F)ccc23)c1 [Example 62, N-[3-(7-fluoro-2-methyl-1-oxoisoquinolin-4-yl)phenyl]ethanesulfonamide] | – |
| < 500 | – | – | – | CCS(=O)(=O)c1ccc(O[C@H]2CC[C@H](O)CC2)c(-c2cn(C)c(=O)c3cc(F)ccc23)c1 [Example 189, 4-[5-ethylsulfonyl-2-(trans-4-hydroxycyclohexyl)oxyphenyl]-7-fluoro-2-methylisoquinolin-1-one] | IC50 [1, 7]: < 500 nM |
| < 500 | – | – | – | Cn1cc(-c2cc(S(C)(=O)=O)ccc2OCC2CC2)c2c(c1=O)CCC2 [Example 504, 4-[2-(cyclopropylmethoxy)-5-methylsulfonylphenyl]-2-methyl-6,7-dihydro-5H-cyclopenta[c]pyridin-1-one] | IC50 [1, 4]: < 500 nM |
| < 500 | – | – | – | CCS(=O)(=O)c1ccc(O[C@H]2CC[C@H](O)CC2)c(-c2cn(C)c(=O)c3ccc(F)cc23)c1 [Example 188, 4-[5-ethylsulfonyl-2-(trans-4-hydroxycyclohexyl)oxyphenyl]-6-fluoro-2-methylisoquinolin-1-one] | IC50 [1, 7]: < 500 nM |

The next lines start with the compound.

| Structure (SMILES) | IC50 [2, 5] [nM] | IC50 [1, 6] [nM] | IC50 ([2]; class symbols A/B/C) [nM] | IC50 ([3]; Homo sapiens, HL-60) [nM] | further results |
| --- | --- | --- | --- | --- | --- |
| [2H]C([2H])([2H])n1cc(-c2cc(S(=O)(=O)CC)ccc2OCC2CC2)c(C)cc1=O [Example 457, 5-[2-(cyclopropylmethoxy)-5-ethylsulfonylphenyl]-1-(^2H3)methyl-4-methylpyridin-2-one] | < 500 | – | – | – | IC50 [1, 4]: < 500 nM |
| CCNS(=O)(=O)c1cccc(-c2cn(C)c(=O)c3cc(F)ccc23)c1 [Example 59, N-ethyl-3-(7-fluoro-2-methyl-1-oxoisoquinolin-4-yl) benzenesulfonamide] | – | – | 500 to 5000 | – | IC50 ([1]; Cell-MTS, class symbols A/B/C): 500 to 5000 nM; IC50 [3]: 500 to 5000 nM |
| CCS(=O)(=O)Nc1cc2c(c(-c3cc(C)c(=O)n(C)c3)c1)OC(C1CC1)C2 (centres unmarked) [Example 496, N-[2-cyclopropyl-7-(1,5-dimethyl-6-oxopyridin-3-yl)-2,3-dihydro-1-benzofuran-5-yl]ethanesulfonamide] | < 500 | – | – | – | IC50 [1, 4]: < 500 nM |
| Cn1cc(-c2ccc(F)c(NS(C)(=O)=O)c2)c2ccccc2c1=O [Example 37, N-[2-fluoro-5-(2-methyl-1-oxoisoquinolin-4-yl)phenyl] methanesulfonamide] | – | 500 to 5000 | < 500 | 500 to 5000 | – |
| Cn1cc(-c2cccc(NS(C)(=O)=O)c2)c2ccncc2c1=O [Example 51, N-[3-(2-methyl-1-oxo-2,7-naphthyridin-4-yl)phenyl]methanesulfonamide] | – | > 5000 | 500 to 5000 | 500 to 5000 | – |
| Cn1cc(-c2cccc(NS(C)(=O)=O)c2)c2ccc(F)cc2c1=O [Example 58, N-[3-(7-fluoro-2-methyl-1-oxoisoquinolin-4-yl)phenyl]methanesulfonamide] | – | 500 to 5000 | < 500 | < 500 | – |
| Cn1cc(-c2cccc(NS(C)(=O)=O)c2)ccc1=O [Example 94, N-[3-(1-methyl-6-oxopyridin-3-yl)phenyl]methanesulfonamide] | – | < 500 | 500 to 5000 | > 5000 | – |
| Cn1cc(-c2cc(NS(C)(=O)=O)ccc2Cl)c2ccccc2c1=O [Example 38, N-[4-chloro-3-(2-methyl-1-oxoisoquinolin-4-yl)phenyl] methanesulfonamide] | – | 500 to 5000 | < 500 | < 500 | – |
| CCCCc1cnc(NS(=O)(=O)CC)nc1-c1cc(C)c(=O)n(C(C)C)c1 [Example 511, N-[5-butyl-4-(5-methyl-6-oxo-1-propan-2-ylpyridin-3-yl)pyrimidin-2-yl] ethanesulfonamide] | < 500 | – | – | – | IC50 [1, 4]: < 500 nM |
| Cn1cc(-c2cc(F)cc(NS(C)(=O)=O)c2)c2ccccc2c1=O [Example 36, N-[3-fluoro-5-(2-methyl-1-oxoisoquinolin-4-yl)phenyl] methanesulfonamide] | – | 500 to 5000 | 500 to 5000 | 500 to 5000 | – |
| CCNS(=O)(=O)c1cccc(-c2cn(C)c(=O)c3ccc(F)cc23)c1 [Example 49, N-ethyl-3-(6-fluoro-2-methyl-1-oxoisoquinolin-4-yl) benzenesulfonamide] | – | – | – | – | IC50 ([1]; Cell-MTS, class symbols A/B/C): 500 to 5000 nM; IC50 [3]: 500 to 5000 nM |
| Cn1cc(-c2nc(CS(C)(=O)=O)ncc2Oc2ccc(F)cc2F)c2ccccc2c1=O [Example 148, 4-[5-(2,4-difluorophenoxy)-2-(methylsulfonylmethyl)pyrimidin-4-yl]-2-methylisoquinolin-1-one] | < 500 | – | – | – | IC50 [1, 7]: > 5000 nM |
| CCS(=O)(=O)Nc1ncc(Oc2ccc(F)cc2F)c(-c2cc(C)c(=O)n(C(C)C)c2)n1 [Example 509, N-[5-(2,4-difluorophenoxy)-4-(5-methyl-6-oxo-1-propan-2-ylpyridin-3-yl)pyrimidin-2-yl]ethanesulfonamide] | < 500 | – | – | – | IC50 [1, 4]: < 500 nM |
| CCC1Cc2cc(S(C)(=O)=O)cc(-c3cn(C)c(=O)c4ccccc34)c2O1 (centres unmarked) [Example 494, 4-(2-ethyl-5-methylsulfonyl-2,3-dihydro-1-benzofuran-7-yl)-2-methylisoquinolin-1-one] | < 500 | – | – | – | IC50 [1, 4]: 500 to 5000 nM |
